According to ChEMBL document CHEMBL2074533, “OATP1B1, OATP1B3, and mrp2 are involved in hepatobiliary transport of olmesartan, a novel angiotensin II blocker” (Drug Metab Dispos, 2006):

What was measured:
[1] = molecular target: T1, ATP-binding cassette sub-family C member 2 (Homo sapiens, UniProt Q92887); assay: TP_TRANSPORTER: transport in hCMV cells; type: functional, cell membranes, Canalicular membrane vesicle
[2] = molecular target: ATP-binding cassette sub-family C member 2 (Rattus norvegicus, UniProt Q63120); assay: TP_TRANSPORTER: biliary excretion in EHBR rat; type: functional, organism-based, Bile; settings: in vivo
[3] = molecular target: T1, ATP-binding cassette sub-family C member 2; assay: TP_TRANSPORTER: transport in MRP2-expressing vesicles; type: functional, subcellular
[4] = molecular target: T2, Hepatic sodium/bile acid cotransporter (Homo sapiens, UniProt Q14973); assay: TP_TRANSPORTER: transport in NTCP-transfected HEK-293 cells; type: functional, cell-based; settings: hek293
T2 sequence (Q14973 whole entry): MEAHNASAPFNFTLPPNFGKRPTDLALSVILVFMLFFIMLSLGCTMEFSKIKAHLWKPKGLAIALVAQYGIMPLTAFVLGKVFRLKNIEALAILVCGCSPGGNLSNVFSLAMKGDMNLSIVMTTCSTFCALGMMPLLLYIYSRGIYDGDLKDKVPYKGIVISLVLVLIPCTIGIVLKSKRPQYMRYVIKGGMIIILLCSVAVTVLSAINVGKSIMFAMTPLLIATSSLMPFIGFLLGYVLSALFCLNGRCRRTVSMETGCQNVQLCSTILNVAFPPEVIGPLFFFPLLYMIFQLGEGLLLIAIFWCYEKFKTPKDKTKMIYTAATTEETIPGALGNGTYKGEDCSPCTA

OATP1B3 = molecular target: T3, OATP1B3 (Homo sapiens, UniProt Q9NPD5); assay: TP_TRANSPORTER: transport in OATP1B3-expressing oocytes; type: functional, cell-based, Oocyte
T3 sequence (Q9NPD5 whole entry): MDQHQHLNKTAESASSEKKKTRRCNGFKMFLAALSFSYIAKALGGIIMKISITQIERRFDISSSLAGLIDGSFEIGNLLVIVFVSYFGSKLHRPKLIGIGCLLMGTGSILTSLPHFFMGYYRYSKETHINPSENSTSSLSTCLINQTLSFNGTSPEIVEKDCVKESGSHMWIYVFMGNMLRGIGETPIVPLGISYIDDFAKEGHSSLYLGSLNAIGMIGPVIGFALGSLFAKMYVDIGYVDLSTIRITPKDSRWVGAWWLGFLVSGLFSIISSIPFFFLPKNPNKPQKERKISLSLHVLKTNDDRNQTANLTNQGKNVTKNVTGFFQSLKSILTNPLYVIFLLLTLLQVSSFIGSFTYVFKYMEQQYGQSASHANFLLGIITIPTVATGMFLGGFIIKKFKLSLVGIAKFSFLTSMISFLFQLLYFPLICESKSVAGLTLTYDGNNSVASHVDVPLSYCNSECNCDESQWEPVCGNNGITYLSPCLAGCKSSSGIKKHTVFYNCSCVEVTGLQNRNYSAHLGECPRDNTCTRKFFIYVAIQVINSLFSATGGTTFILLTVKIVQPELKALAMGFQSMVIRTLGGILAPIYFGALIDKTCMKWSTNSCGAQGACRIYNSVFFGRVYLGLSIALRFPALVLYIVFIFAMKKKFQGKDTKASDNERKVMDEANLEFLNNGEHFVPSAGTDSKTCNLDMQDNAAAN

[5] = substrate: CCCc1nc(C(C)(C)O)c(C(=O)O)n1Cc1ccc(-c2ccccc2-c2nnn[nH]2)cc1; assay: TP_TRANSPORTER: transport in OATP1B1-expressing oocytes; type: functional, cell-based, Oocyte

T1 sequence (Q92887 whole entry): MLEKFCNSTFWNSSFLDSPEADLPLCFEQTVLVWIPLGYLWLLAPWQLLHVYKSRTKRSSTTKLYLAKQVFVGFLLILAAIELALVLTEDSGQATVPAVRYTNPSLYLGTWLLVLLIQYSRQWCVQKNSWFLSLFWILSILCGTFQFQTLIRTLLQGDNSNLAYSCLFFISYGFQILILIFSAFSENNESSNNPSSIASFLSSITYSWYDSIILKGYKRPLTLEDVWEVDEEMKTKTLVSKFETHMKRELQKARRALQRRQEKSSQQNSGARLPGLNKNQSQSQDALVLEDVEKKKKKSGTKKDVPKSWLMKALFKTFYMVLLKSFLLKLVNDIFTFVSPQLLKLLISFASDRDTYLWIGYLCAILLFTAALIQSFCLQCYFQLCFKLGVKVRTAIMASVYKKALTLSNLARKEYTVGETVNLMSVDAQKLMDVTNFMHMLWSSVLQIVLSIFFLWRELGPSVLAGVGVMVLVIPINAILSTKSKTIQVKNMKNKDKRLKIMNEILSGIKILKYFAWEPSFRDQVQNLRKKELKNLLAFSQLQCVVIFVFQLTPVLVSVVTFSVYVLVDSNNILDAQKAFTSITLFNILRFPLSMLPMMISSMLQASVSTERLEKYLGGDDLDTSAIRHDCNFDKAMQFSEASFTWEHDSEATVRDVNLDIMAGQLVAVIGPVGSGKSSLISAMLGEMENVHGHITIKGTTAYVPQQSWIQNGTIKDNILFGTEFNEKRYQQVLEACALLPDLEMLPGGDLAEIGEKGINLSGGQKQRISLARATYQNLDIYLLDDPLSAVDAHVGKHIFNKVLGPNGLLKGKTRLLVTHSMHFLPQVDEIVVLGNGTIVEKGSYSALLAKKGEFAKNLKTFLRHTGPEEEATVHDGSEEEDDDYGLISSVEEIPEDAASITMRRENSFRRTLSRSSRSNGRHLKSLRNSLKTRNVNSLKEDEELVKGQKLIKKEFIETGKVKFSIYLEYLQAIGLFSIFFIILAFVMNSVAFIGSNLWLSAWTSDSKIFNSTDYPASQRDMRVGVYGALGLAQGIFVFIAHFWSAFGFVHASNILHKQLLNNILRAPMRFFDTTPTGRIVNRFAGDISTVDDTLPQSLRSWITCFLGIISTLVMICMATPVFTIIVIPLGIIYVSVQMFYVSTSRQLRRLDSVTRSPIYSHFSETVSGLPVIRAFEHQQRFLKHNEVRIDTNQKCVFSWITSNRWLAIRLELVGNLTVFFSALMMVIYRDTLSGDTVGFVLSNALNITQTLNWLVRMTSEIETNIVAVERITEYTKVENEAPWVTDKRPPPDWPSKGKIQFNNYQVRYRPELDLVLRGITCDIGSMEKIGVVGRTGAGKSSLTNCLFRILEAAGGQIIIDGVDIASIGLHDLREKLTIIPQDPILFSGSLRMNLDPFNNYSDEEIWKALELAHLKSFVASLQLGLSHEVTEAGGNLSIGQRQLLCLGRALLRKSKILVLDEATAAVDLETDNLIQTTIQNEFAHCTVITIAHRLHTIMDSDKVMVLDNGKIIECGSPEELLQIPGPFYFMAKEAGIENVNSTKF
ATP-binding cassette sub-family C member 2 (Rattus norvegicus, UniProt Q63120), sequence (Q63120 whole entry): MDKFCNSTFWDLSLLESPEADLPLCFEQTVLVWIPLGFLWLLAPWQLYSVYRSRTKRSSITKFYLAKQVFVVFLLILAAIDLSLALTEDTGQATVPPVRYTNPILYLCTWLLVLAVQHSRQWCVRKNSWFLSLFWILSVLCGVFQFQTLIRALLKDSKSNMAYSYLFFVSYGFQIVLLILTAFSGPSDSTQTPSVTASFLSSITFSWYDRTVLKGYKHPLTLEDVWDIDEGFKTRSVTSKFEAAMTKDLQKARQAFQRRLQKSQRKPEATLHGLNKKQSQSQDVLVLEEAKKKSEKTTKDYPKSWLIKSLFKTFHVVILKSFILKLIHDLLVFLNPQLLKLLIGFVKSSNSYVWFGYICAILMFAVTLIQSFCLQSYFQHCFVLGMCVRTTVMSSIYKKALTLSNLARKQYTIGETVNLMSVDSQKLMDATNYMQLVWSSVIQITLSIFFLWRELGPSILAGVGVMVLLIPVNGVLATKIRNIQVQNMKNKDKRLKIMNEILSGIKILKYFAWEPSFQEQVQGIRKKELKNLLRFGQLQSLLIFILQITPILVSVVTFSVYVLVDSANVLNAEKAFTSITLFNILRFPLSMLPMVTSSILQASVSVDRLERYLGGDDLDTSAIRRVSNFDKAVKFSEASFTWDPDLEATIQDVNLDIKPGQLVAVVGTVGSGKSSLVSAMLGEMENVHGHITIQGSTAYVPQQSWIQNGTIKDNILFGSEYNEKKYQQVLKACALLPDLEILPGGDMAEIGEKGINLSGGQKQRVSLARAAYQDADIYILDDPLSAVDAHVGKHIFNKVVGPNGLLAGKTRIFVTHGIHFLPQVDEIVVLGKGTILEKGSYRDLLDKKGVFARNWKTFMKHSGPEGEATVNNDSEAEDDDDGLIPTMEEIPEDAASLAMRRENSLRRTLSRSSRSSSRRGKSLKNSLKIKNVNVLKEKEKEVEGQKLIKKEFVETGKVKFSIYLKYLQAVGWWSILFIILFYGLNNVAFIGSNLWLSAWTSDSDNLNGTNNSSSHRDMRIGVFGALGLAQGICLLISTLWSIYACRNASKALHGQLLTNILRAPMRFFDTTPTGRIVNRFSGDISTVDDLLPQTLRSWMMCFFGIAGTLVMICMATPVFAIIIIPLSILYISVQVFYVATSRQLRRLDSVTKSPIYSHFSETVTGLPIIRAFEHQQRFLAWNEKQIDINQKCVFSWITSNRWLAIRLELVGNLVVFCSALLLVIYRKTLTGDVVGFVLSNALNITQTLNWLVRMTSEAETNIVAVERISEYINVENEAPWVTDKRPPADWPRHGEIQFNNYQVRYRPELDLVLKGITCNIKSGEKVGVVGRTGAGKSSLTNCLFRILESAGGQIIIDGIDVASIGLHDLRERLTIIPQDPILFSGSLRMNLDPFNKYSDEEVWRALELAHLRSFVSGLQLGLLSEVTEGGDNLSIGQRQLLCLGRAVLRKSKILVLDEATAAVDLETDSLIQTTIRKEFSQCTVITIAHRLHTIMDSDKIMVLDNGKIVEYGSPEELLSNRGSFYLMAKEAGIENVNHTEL

| Activity [1] | Activity [2] | Activity [3] | Activity [4] | Km (OATP1B3) [µM] | Molecule | Km [5] [µM] |
| --- | --- | --- | --- | --- | --- | --- |
| substrate [+] | substrate [+] | substrate [+] | is not a substrate [-] | 71.8 | CCCc1nc(C(C)(C)O)c(C(=O)O)n1Cc1ccc(-c2ccccc2-c2nnn[nH]2)cc1 [OLMESARTAN] | – |
| – | – | – | – | – | Solute carrier organic anion transporter family member 1B1 (Homo sapiens) (protein) MDQNQHLNKTAEAQPSENKKTRYCNGLKMFLAALSLSFIAKTLGAIIMKSSIIHIERRFEISSSLVGFIDGSFEIGNLLVIVFVSYFGSKLHRPKLIGIGCFIMGIGGVLTALPHFFMGYYRYSKETNINSSENSTSTLSTCLINQILSLNRASPEIVGKGCLKESGSYMWIYVFMGNMLRGIGETPIVPLGLSYIDDFAKEGHSSLYLGILNAIAMIGPIIGFTLGSLFSKMYVDIGYVDLSTIRITPTDSRWVGAWWLNFLVSGLFSIISSIPFFFLPQTPNKPQKERKASLSLHVLETNDEKDQTANLTNQGKNITKNVTGFFQSFKSILTNPLYVMFVLLTLLQVSSYIGAFTYVFKYVEQQYGQPSSKANILLGVITIPIFASGMFLGGYIIKKFKLNTVGIAKFSCFTAVMSLSFYLLYFFILCENKSVAGLTMTYDGNNPVTSHRDVPLSYCNSDCNCDESQWEPVCGNNGITYISPCLAGCKSSSGNKKPIVFYNCSCLEVTGLQNRNYSAHLGECPRDDACTRKFYFFVAIQVLNLFFSALGGTSHVMLIVKIVQPELKSLALGFHSMVIRALGGILAPIYFGALIDTTCIKWSTNNCGTRGSCRTYNSTSFSRVYLGLSSMLRVSSLVLYIILIYAMKKKYQEKDINASENGSVMDEANLESLNKNKHFVPSAGADSETHC | 42.6 |
